{"source": "patent US8785460B2", "about": "“Tricyclic compounds and use thereof” (Takeda Pharmaceutical Company Limited, priority 2008, dated 2014)", "note": "Structures can show the parent of a compound that is named as a salt.", "data": [{"target": "T1, human CRF1 receptor (Homo sapiens, UniProt P34998)", "T1 construct": "expressed in transfected cells; host or cells: CHO cells (membrane fraction)", "T1 sequence (P34998 24-415)": "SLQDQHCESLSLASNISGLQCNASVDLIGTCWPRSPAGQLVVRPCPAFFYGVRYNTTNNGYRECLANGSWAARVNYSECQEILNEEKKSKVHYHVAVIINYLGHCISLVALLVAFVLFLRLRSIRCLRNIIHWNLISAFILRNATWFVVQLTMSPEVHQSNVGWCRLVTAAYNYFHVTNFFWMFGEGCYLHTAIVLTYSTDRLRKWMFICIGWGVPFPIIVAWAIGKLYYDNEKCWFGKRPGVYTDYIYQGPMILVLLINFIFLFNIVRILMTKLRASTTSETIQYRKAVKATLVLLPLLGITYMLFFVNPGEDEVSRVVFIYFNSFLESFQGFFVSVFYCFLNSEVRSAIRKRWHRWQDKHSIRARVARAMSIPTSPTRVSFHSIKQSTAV", "experiment": "Measurement of CRF Binding Inhibitory Rate (receptor binding experiment with 125I-CRF)", "conditions": "human CRF1 receptor expressing CHO cellular membrane fraction, 50 pM 125I-CRF, room temperature 1.5 hr, 0.05 nM to 10 μM of compound; read-out: IC50 values (CRF binding inhibition)", "protocol": "Measurement of CRF Binding Inhibitory Rate\nA receptor binding experiment was carried out using a human CRF1 receptor expressing CHO cellular membrane fraction and ovine CRF, [^125I]-tyr^0(^125I-CRF). 1000 nM of a test compound was incubated with 1 μg of human CREF receptor expressing CHO cellular membrane fraction and 50 pM of ^125I-CRF in a binding assay buffer (50 mM Tris-HCl, 5 mM EDTA, 10 mM MgCl2, 0.05% CHAPS, 0.1% BSA, 0.5 mM PMSF, 0.1 μg/mL pepstatin, 20 μg/mL leupeptin, pH 7.5). In addition, for measuring nonspecific binding (NSB), 0.1 μM unlabelled human Urocortin was incubated with 5 μg of human CRE receptor expressing CHO cellular membrane fraction and 50 pM of ^125I-CRF in a binding assay buffer. After a binding reaction was carried out at room temperature for 1.5 hr, the membrane was entrapped on a glass filter (UniFilter plate GF-C/Perkin Elmer) by suction filtration using a cell harvester (Perkin Elmer), and washed with ice-cooled 50 mM Tris-HCl (pH 7.5). After drying the glass filter, a liquid scintillation cocktail (Microscinti 0, Perkin Elmer) was added, and the radioactivity of ^125I-CRF remaining on a glass filter was measured using Topcount (Perkin Elmer).\n(TB−SB)/(TB−NSB)×100 (SB: radioactivity when a compound is added, TB: maximum binding radioactivity, NSB: nonspecific binding radioactivity) were calculated to obtain binding inhibitory rates under the range of the presence from 0.05 nM to 10 μM of each compound. The IC50 values were calculated by using GraphPad Prism software.", "units": {"IC50": "nM"}, "values": [{"smiles": "CC/C(=N\\OC(F)F)c1ccc(Cl)c2nc3n(c12)CCCN3c1c(Cl)cc(Cl)cc1Cl", "note": "[Example 194, (1E)-1-[9-Chloro-1-(2,4,6-trichlorophenyl)-1,2,3,4-tetrahydropyrimido[1,2-a]benzimidazol-6-yl]propan-1-one O-(difluoromethyl)oxime]", "IC50": "< 1000"}, {"smiles": "CCC(c1ccc(Cl)c2nc3n(c12)CCCN3c1ccc(Cl)cc1Cl)C(F)F", "note": "(stereo not shown) [Example 403, 9-Chloro-1-(2,4-dichlorophenyl)-6-[1-(difluoromethyl)propyl]-1,2,3,4-tetrahydropyrimido[1,2-a]benzimidazole]", "IC50": "< 1000"}, {"smiles": "CCC(CC)c1ccc(Cl)c2nc3n(-c4c(C)cc(Cl)cc4OC)c(Cl)cn3c12", "note": "[Example 10, 2,8-Dichloro-1-(4-chloro-2-methoxy-6-methylphenyl)-5-(1-ethylpropyl)-1H-imidazo[1,2-a]benzimidazole]", "IC50": "< 1000"}, {"smiles": "CCC(OC(=O)CC(C)(C)O)c1ccc(Cl)c2nc3n(c12)CCCN3c1ccc(Cl)cc1Cl", "note": "(stereo not shown) [Example 444, 1-[9-Chloro-1-(2,4-dichlorophenyl)-1,2,3,4-tetrahydropyrimido[1,2-a]benzimidazol-6-yl]propyl 3-hydroxy-3-methylbutanoate]", "IC50": "< 1000"}, {"smiles": "CCN(CC)c1ccc(Cl)c2nc3n(c12)CCOC3c1ccc(Cl)cc1Cl", "note": "(stereo not shown) [Example 502, 9-Chloro-1-(2,4-dichlorophenyl)-N,N-diethyl-3,4-dihydro-1H-[1,4]oxazino[4,3-a]benzimidazol-6-amine]", "IC50": "< 1000"}, {"smiles": "CCC(CC)c1ccc(Cl)c2nc3n(c12)CCCCN3c1ccc(OC(F)(F)F)cc1", "note": "[Example 40, 10-Chloro-7-(1-ethylpropyl)-1-[4-(trifluoromethoxy)phenyl]-2,3,4,5-tetrahydro-1H-[1,3]diazepino[1,2-a]benzimidazole]", "IC50": "< 1000"}, {"smiles": "CCC(CC)c1ccc(Cl)c2nc3n(c12)CCN3c1ccc(Cl)cc1C#N", "note": "[Example 18, 5-Chloro-2-[8-chloro-5-(1-ethylpropyl)-2,3-dihydro-1H-imidazo[1,2-a]benzimidazol-1-yl]benzonitrile]", "IC50": "< 1000"}, {"smiles": "CCC(CC)c1ccc(Cl)c2nc3n(c12)CCN3c1c(C)cc(Cl)cc1OC", "note": "[Example 1, 8-Chloro-1-(4-chloro-2-methoxy-6-methylphenyl)-5-(1-ethylpropyl)-2,3-dihydro-1H-imidazo[1,2-a]benzimidazole]", "IC50": "< 1000"}, {"smiles": "CC(=O)NC(c1ccc(Cl)c2nc3n(c12)CCCN3c1c(Cl)cc(Cl)cc1Cl)C(F)(F)F", "note": "(stereo not shown) [Example 415, N-{1-[9-Chloro-1-(2,4,6-trichlorophenyl)-1,2,3,4-tetrahydropyrimido[1,2-a]benzimidazol-6-yl]-2,2,2-trifluoroethyl}acetamide]", "IC50": "< 1000"}, {"smiles": "CCC(OC(C)=O)c1ccc(Cl)c2nc3n(c12)CCCN3c1ccc(S(C)(=O)=O)cc1Cl", "note": "(stereo not shown) [Example 254, 1-{9-Chloro-1-[2-chloro-4-(methylsulfonyl)phenyl]-1,2,3,4-tetrahydropyrimido[1,2-a]benzimidazol-6-yl}propyl acetate]", "IC50": "< 1000"}, {"smiles": "Clc1ccc(N2CCCn3c2nc2c(Cl)ccc(N4CCCC4)c23)c(Cl)c1", "note": "[Example 196, 9-Chloro-1-(2,4-dichlorophenyl)-6-pyrrolidin-1-yl-1,2,3,4-tetrahydropyrimido[1,2-a]benzimidazole]", "IC50": "< 1000"}, {"smiles": "CC(=O)NC(c1ccc(Cl)c2nc3n(c12)CCCN3c1ccc(Cl)cc1Cl)C(F)(F)F", "note": "(stereo not shown) [Example 476, N-{1-[9-chloro-1-(2,4-dichlorophenyl)-1,2,3,4-tetrahydropyrimido[1,2-a]benzimidazol-6-yl]-2,2,2-trifluoroethyl}acetamide]", "IC50": "< 1000"}, {"smiles": "CCC(OCC(F)(F)F)c1ccc(Cl)c2nc3n(c12)CCCN3c1ccc(OC)cc1Cl", "note": "(stereo not shown) [Example 466, 9-Chloro-1-(2-chloro-4-methoxyphenyl)-6-[1-(2,2,2-trifluoroethoxy)propyl]-1,2,3,4-tetrahydropyrimido[1,2-a]benzimidazole]", "IC50": "< 1000"}, {"smiles": "CCC(CC)c1ccc(Cl)c2nc3n(c12)CCN3c1ccc(Cl)cc1CN(C)C", "note": "[Example 8, 1-{5-Chloro-2-[8-chloro-5-(1-ethylpropyl)-2,3-dihydro-1H-imidazo[1,2-a]benzimidazol-1-yl]phenyl}-N,N-dimethylmethanamine]", "IC50": "< 1000"}, {"smiles": "CCC(C(C)=O)c1ccc(Cl)c2nc3n(c12)CCCN3c1ccc(Cl)cc1Cl", "note": "(stereo not shown) [Example 405, 3-[9-Chloro-1-(2,4-dichlorophenyl)-1,2,3,4-tetrahydropyrimido[1,2-a]benzimidazol-6-yl]pentan-2-one]", "IC50": "< 1000"}, {"smiles": "COc1ccc(N2CCCn3c2nc2c(Cl)ccc(C(OC)C(F)(F)F)c23)c(Cl)c1", "note": "(stereo not shown) [Example 471, 9-Chloro-1-(2-chloro-4-methoxyphenyl)-6-(2,2,2-trifluoro-1-methoxyethyl)-1,2,3,4-tetrahydropyrimido[1,2-a]benzimidazole]", "IC50": "< 1000"}, {"smiles": "CC(C)(C#N)c1ccc(Cl)c2nc3n(c12)CCCN3c1ccc(Cl)cc1Cl", "note": "[Example 144, 2-[9-Chloro-1-(2,4-dichlorophenyl)-1,2,3,4-tetrahydropyrimido[1,2-a]benzimidazol-6-yl]-2-methylpropanenitrile]", "IC50": "< 1000"}, {"smiles": "CCC(OC1CC1)c1ccc(Cl)c2nc3n(c12)CCCN3c1ccc(OC)nc1C", "note": "(stereo not shown) [Example 271, 9-Chloro-6-[1-(cyclopropyloxy)propyl]-1-(6-methoxy-2-methylpyridin-3-yl)-1,2,3,4-tetrahydropyrimido[1,2-a]benzimidazole]", "IC50": "< 1000"}, {"smiles": "CCC(CC)c1ccc(Cl)c2nc3n(c12)CCCCN3c1ccc(C)cc1CN(C)C", "note": "[Example 35, 1-{2-[10-Chloro-7-(1-ethylpropyl)-2,3,4,5-tetrahydro-1H-[1,3]diazepino[1,2-a]benzimidazol-1-yl]-5-methylphenyl}-N,N-dimethylmethanamine hydrochloride]", "IC50": "< 1000"}, {"smiles": "CCC(OCCOC)c1cccc2nc3n(c12)CCCN3c1ccc(Cl)cc1Cl", "note": "(stereo not shown) [Example 94, 1-(2,4-Dichlorophenyl)-6-[1-(2-methoxyethoxy)propyl]-1,2,3,4-tetrahydropyrimido[1,2-a]benzimidazole]", "IC50": "< 1000"}, {"smiles": "OC(c1ccc(Cl)c2nc3n(c12)CCCOC3c1ccc(Cl)cc1Cl)(C1CC1)C1CC1", "note": "(stereo not shown) [Example 500, [10-Chloro-1-(2,4-dichlorophenyl)-4,5-dihydro-1H,3H-[1,4]oxazepino[4,3-a]benzimidazol-7-yl](dicyclopropyl)methanol]", "IC50": "< 1000"}, {"smiles": "CCC(CC)c1ccc(Cl)c2nc3n(c12)CCCCN3c1ccc(C)cc1C=O", "note": "[Example 34, 2-[10-Chloro-7-(1-ethylpropyl)-2,3,4,5-tetrahydro-1H-[1,3]diazepino[1,2-a]benzimidazol-1-yl]-5-methylbenzaldehyde]", "IC50": "< 1000"}, {"smiles": "CCC(c1ccc(Cl)c2nc3n(c12)CCCN3c1ccc(Cl)cc1Cl)N(C)S(C)(=O)=O", "note": "(stereo not shown) [Example 385, N-{1-[9-Chloro-1-(2,4-dichlorophenyl)-1,2,3,4-tetrahydropyrimido[1,2-a]benzimidazol-6-yl]propyl}-N-methylmethanesulfonamide]", "IC50": "< 1000"}, {"smiles": "CCC(CC)c1ccc(Cl)c2nc3n(c12)CC(=O)N3c1c(C)cc(Cl)cc1OC", "note": "[Example 2, 8-Chloro-1-(4-chloro-2-methoxy-6-methylphenyl)-5-(1-ethylpropyl)-1H-imidazo[1,2-a]benzimidazol-2(3H)-one]", "IC50": "< 1000"}, {"smiles": "CCC(OC(C)=O)c1ccc(Cl)c2nc3n(c12)CCCN3c1ccc(C(N)=O)cc1Cl", "note": "(stereo not shown) [Example 255, 1-[1-(4-Carbamoyl-2-chlorophenyl)-9-chloro-1,2,3,4-tetrahydropyrimido[1,2-a]benzimidazol-6-yl]propyl acetate]", "IC50": "< 1000"}, {"smiles": "COC(=O)c1ccc(Cl)c2nc3n(c12)CCCN3c1ncc(C)nc1C", "note": "[Example 175, Methyl 9-chloro-1-(3,5-dimethylpyrazin-2-yl)-1,2,3,4-tetrahydropyrimido[1,2-a]benzimidazole-6-carboxylate]", "IC50": "< 1000"}, {"smiles": "CCC(OC1CC1)c1ccc(Cl)c2nc3n(c12)CCCN3c1ccc(OC)cc1Cl", "note": "(stereo not shown) [Example 474, 9-Chloro-1-(2-chloro-4-methoxyphenyl)-6-[1-(cyclopropyloxy)propyl]-1,2,3,4-tetrahydropyrimido[1,2-a]benzimidazole]", "IC50": "< 1000"}, {"smiles": "CCOc1ccc(N2CCCn3c2nc2c(Cl)ccc(C(OC(F)F)C(F)(F)F)c23)c(C)n1", "note": "(stereo not shown) [Example 287, 9-Chloro-6-[1-(difluoromethoxy)-2,2,2-trifluoroethyl]-1-(6-ethoxy-2-methylpyridin-3-yl)-1,2,3,4-tetrahydropyrimido[1,2-a]benzimidazole]", "IC50": "< 1000"}]}]}
